Measurements: ChEMBL document CHEMBL3853353, “Identification and optimization of a new series of anti-tubercular quinazolinones” (Bioorg Med Chem Lett, 2016)
In brackets after ≈: the same amount, converted by molar mass.

Assays:
[1] = system: Mycobacterium tuberculosis; test: Antimycobacterial activity against Mycobacterium tuberculosis H37Rv in 1000 bacteria inoculated agar plate; assay type: functional
Cytochrome P450 3A4 [2] = biological target: T1, Cytochrome P450 3A4 (Homo sapiens, UniProt P08684); test: Inhibition of CYP3A4 in human liver microsomes assessed as 6-beta-hydroxytestosterone metabolite formation using testosterone as substrate incubated for 30 mins by HPLC-MS method
T1 sequence (P08684 whole entry): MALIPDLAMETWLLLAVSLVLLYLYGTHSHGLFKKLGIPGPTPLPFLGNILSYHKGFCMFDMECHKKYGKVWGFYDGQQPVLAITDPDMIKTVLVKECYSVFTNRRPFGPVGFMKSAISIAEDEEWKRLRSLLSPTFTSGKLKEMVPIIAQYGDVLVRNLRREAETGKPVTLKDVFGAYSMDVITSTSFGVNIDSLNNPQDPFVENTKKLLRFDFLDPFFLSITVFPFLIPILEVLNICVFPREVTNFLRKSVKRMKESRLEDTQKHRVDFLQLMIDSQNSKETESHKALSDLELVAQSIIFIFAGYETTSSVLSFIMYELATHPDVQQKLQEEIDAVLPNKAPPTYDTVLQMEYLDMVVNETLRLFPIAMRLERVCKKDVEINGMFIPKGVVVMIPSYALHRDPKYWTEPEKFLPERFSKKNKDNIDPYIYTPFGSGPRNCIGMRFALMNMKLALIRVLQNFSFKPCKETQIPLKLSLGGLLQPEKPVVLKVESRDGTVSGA

[3] = Aqueous equilibrium solubility of compound in pH 7.4 solution at 20 degC; conditions: aqueous pH 7.4 solution
[4] = system: Mycobacterium tuberculosis; test: Antimycobacterial activity against GFP-tagged Mycobacterium tuberculosis H37Rv infected in mouse RAW264.7 cells incubated for 4 days by Mask blue/Hoechst/FITC staining based fluorescence microscopic analysis; assay type: functional; conditions: 96 h
[5] = Permeability in human Caco2 cells; conditions: caco-2
[6] = Time at which plasma concentration stays above invitro MIC80 in presence of mouse serum in Balb/c mouse infected with Mycobacterium tuberculosis H37Rv at 100 mg/kg, po administered through gavage as 90%/10% PEG200/vitamin -E TPGS formulation; assay type: ADME, organism-based; conditions: in vivo
[7] = Time at which lung concentration stays above invitro MIC80 in presence of mouse serum in Balb/c mouse infected with Mycobacterium tuberculosis H37Rv at 100 mg/kg, po administered through gavage as 90%/10% PEG200/vitamin -E TPGS formulation; assay type: ADME, organism-based; conditions: in vivo
[8] = Aqueous equilibrium solubility of compound in pH 1 solution at 20 degC; conditions: aqueous pH 1 solution
[9] = system: Mycobacterium tuberculosis; test: Antimycobacterial activity against Mycobacterium tuberculosis H37Rv infected in Balb/c mouse assessed as bacterial burden in lungs at 10 to 300 mg/kg administered daily through gavage starting on day 2 post infection for 8 consecutive days; assay type: functional, Lung
[10] = system: Mycobacterium tuberculosis; test: (§1) Antimycobacterial activity against Mycobacterium tuberculosis H37Rv infected in Balb/c mouse assessed as bacterial burden in lungs at 50 mg/kg, po administered daily through gavage starting on day 2 post infection for 4 days per week for 2 weeks as Vitamin-E/PEG200 formulation each 4 days dosing followed by 2 days compound washout measured on day 12 post infection (reference value: 8 log10CFU); assay type: functional, Lung
[11] = Oral bioavailability in Swiss mouse at 100 mg/kg administered as single dose through gavage as 90%/10% PEG200/vitamin -E TPGS formulation after 24 hrs; assay type: ADME, organism-based; conditions: in vivo
[12] = system: Mycobacterium tuberculosis; test: as §1, with “100” for “50”; assay type: functional, Lung
[13] = system: Mycobacterium tuberculosis; test: as §1, with “25” for “50”; assay type: functional, Lung
Cytochrome P450 3A4 [14] = biological target: T1, Cytochrome P450 3A4; test: Inhibition of CYP3A4 in human liver microsomes assessed as 1'-hydroxymidazolam metabolite formation using midazolam as substrate incubated for 10 mins by HPLC-MS method
[15] = Half life in Balb/c mouse infected with Mycobacterium tuberculosis H37Rv at 100 mg/kg, po administered through gavage as 90%/10% PEG200/vitamin -E TPGS formulation; assay type: ADME, organism-based; conditions: in vivo
[16] = Cytotoxicity against human HepG2 cells assessed as reduction in cell viability after 40 hrs by Celltiter-Glo assay; conditions: HepG2 cells
[17] = system: Mycobacterium tuberculosis; test: Antimycobacterial activity against Mycobacterium tuberculosis H37Rv in 100000 bacteria inoculated agar plate; assay type: functional
[18] = Protein binding in Swiss mouse plasma at 1 to 10 uM after 4 hrs by LC-MS/MS analysis; assay type: ADME, cell-free; conditions: read-out: PPB (converted)
[19] = Protein binding in human plasma at 1 to 10 uM after 4 hrs by LC-MS/MS analysis; assay type: ADME, cell-free; conditions: read-out: PPB (converted)
[20] = system: Mycobacterium tuberculosis; test: Antimycobacterial activity against Mycobacterium tuberculosis H37Rv infected in Balb/c mouse assessed as bacterial burden in lungs at 10 to 300 mg/kg administered daily through gavage for 4 days separated by 2 days drug wash out followed by second 4 days drug treatment; assay type: functional, Lung
[21] = system: Mycobacterium tuberculosis; test: Antimycobacterial activity against Mycobacterium tuberculosis H37Rv incubated for 5 days in presence of 25% mouse serum by Bactiter-Glo assay; assay type: functional; conditions: 120 h
[22] = Solubility in 90%/10% PEG200/vitamin -E TPGS solution; assay type: physicochemical
[23] = Lipophilicity, log P of compound; conditions: octanol/water
[24] = system: Mycobacterium tuberculosis; test: as §1, with “200” for “50”; assay type: functional, Lung
[25] = AUC in Balb/c mouse plasma infected with Mycobacterium tuberculosis H37Rv at 100 mg/kg, po administered through gavage as 90%/10% PEG200/vitamin -E TPGS formulation; assay type: ADME, organism-based
[26] = system: Mycobacterium tuberculosis; test: Antimycobacterial activity against Mycobacterium tuberculosis H37Rv incubated for 5 days in presence of 25% human serum by Bactiter-Glo assay; assay type: functional; conditions: 120 h
[27] = system: Mycobacterium tuberculosis; test: Ratio of MIC80 for Mycobacterium tuberculosis H37Rv in presence of 25% human serum to MIC80 for Mycobacterium tuberculosis H37Rv; assay type: functional
[28] = Ratio of drug level in Mycobacterium tuberculosis H37Rv infected Balb/c mouse lung to plasma at 100 mg/kg, po administered through gavage as 90%/10% PEG200/vitamin -E TPGS formulation; assay type: ADME, organism-based; conditions: lung and plasma
[29] = system: Mycobacterium tuberculosis; test: Antimycobacterial activity against Mycobacterium tuberculosis H37Rv infected in po dosed Balb/c mouse assessed as reduction in bacterial burden in lungs administered daily through gavage starting on day 2 post infection for 8 consecutive days; assay type: functional; conditions: Lung, 48 h, read-out: MED
[30] = system: Mycobacterium tuberculosis; test: as §1, with “12.5” for “50”; assay type: functional, Lung
[31] = system: Mycobacterium tuberculosis; test: Antimycobacterial activity against Mycobacterium tuberculosis H37Rv incubated for 5 days by Bactiter-Glo assay; assay type: functional; conditions: 120 h

Cn1c(NCCc2ccc(-c3ccc(F)cc3)cc2)nc2cc(Cl)ccc2c1=O
MIC [1]: 0.016 µg/mL (≈ 0.0392 µM)
IC50 (Cytochrome P450 3A4 [2]): 18 µM
solubility thermodynamic [3]: < 0.001 mg/mL
MIC80 [4]: 0.06 µM (≈ 0.0245 µg/mL)
permeability [5]: Permeable
Time [6]: > 24 h
Time [7]: > 24 h
solubility thermodynamic [8]: < 0.001 mg/mL
Activity [9]: 0.78 log10CFU
Activity [10]: 7.4 log10CFU
bioavailability [11]: 73%
Activity [12]: 7.6 log10CFU
Activity [13]: 7.6 log10CFU
IC50 (Cytochrome P450 3A4 [14]): > 30 µM
half-life [15]: 8 h
IC50 at 40 h [16]: 22 µM
MIC [17]: 2 µg/mL (≈ 4.9 µM)
fraction unbound at 4 h [18]: 0.001
fraction unbound at 4 h [19]: 0.001
Activity [20]: 1.5 log10CFU
MIC80 [21]: 0.034 µM
solubility [22]: 20 mg/mL (≈ 49000 µM)
logP [23]: 5.28
Activity [24]: 7.6 log10CFU
AUC [25]: 76000 ng·h/mL
MIC80 [26]: 0.025 µM
Ratio [27]: 8
Kp [28]: 14
minimal effective dose [29]: 300 mg/kg
Activity [30]: 7.7 log10CFU
MIC80 [31]: 0.003 µM (≈ 0.00122 µg/mL)
